{"source": "patent US7018613B2", "about": "“Preparations for evaluating eliminative ability of stomach” (Otsuka Pharmaceutical Co., Ltd., priority 2000, dated 2006)", "assay": "exhalation test (13CO2/12CO2, carbon dioxide gas Δ value) after oral administration to beagle dogs", "data": [{"compound": "CC(C)[N+](C)(CCOC(=O)C1c2ccccc2Oc2ccccc21)C(C)C", "note": "[propantheline]", "values": [{"measurement": "excretion of labeled carbon dioxide gas in the exhalation in the group receiving propantheline versus untreated group", "setting": "beagle dogs given the capsule of Example 8 granules after propantheline, n=4", "result": "slow compared to that seen in the beagle dogs of the untreated group"}]}, {"compound": "O=C([O-])O.[Na+]", "note": "[sodium hydrogencarbonate solution, sodium hydrogencarbonate]", "values": [{"measurement": "excretion of labeled carbon dioxide gas from the body, in words", "setting": "male beagle dogs without propantheline, n=4, FIG. 4", "result": "rapidly excreted from the body"}, {"measurement": "time of maximum of the carbon dioxide gas Δ value, in words", "setting": "male beagle dogs, n=4, control test, 100 mg NaH13CO3, FIG. 4", "result": "immediately after administration"}]}]}
